# Laboratory results reported in patent US10323037B2, “Aminopyridazinone compounds as protein kinase inhibitors” (Jiangsu Hengrui Medicine Co., Ltd., priority 2014, dated 2019).
# pIC50: −log10 of the molar value.
# System: TMD-8 cells
# Assay: Cell proliferation assay (CellTiter-Glo), TMD-8
# Assay type: cell-based
# Conditions: 5-day treatment; read-out: TMD8 cells growth IC50
# Experimental: Cell proliferation assay: TMD-8 and SU-DHL-1 cells were maintained at 37° C. in a humidified atmosphere with 5% CO2 in the recommended medium and serum concentrations. For cell proliferation assay, cells were seeded in 96-well pates at a density of 5,000 to 10,000 cells per well and cultured overnight at 37° C. in recommended medium supplemented with 5-10% FBS. On the next day, the test articles at various concentrations or vehicle control (0.5% DMSO) were added into cell culture. After 5-day treatment, the growth of cells was assayed by the CellTiter-Glo® Luminestceaent Cell Viability Assay (Promega). IC50 values were calculated using GraphPad Prism by plotting the logarithm of the concentration versus percent inhibition of cell growth as compared with the vehicle control.
row,SMILES,pIC50
1,"CN(C)C/C=C/C(=O)N1CC(Cn2cc(-c3ccc(Oc4ccccc4)cc3)c3c(N)n[nH]c(=O)c32)C1 [Example 47, 4-amino-1-[[1-[(E)-4-(dimethylamino)but-2-enoyl]azetidin-3-yl]methyl]-3-(4-phenoxyphenyl)-6H-pyrrolo[2,3 d]pyridazin-7-one]",≥ 8.00
2,"CN(C)C/C=C/C(=O)N1CCC(F)C(n2cc(-c3ccc(Oc4ccccc4)cc3)c3c(N)n[nH]c(=O)c32)C1 (centres unmarked) [Example 45, 4-amino-1-[1-[(E)-4-(dimethylamino)but-2-enoyl]-4-fluoro-3-piperidyl]-3-(4-phenoxyphenyl)-6H-pyrrolo[2,3 d]pyridazin-7-one]",≥ 8.00
3,"CN(C)C/C=C/C(=O)NC1C2CCC1CC(n1cc(-c3ccc(Oc4ccccc4)cc3)c3c(N)n[nH]c(=O)c31)C2 (centres unmarked) [Example 48, (E)-N-[3-[4-amino-7-oxo-3-(4-phenoxyphenyl)-6H-pyrrolo[2,3 d]pyridazin-1-yl]-8-bicyclo[3.2.1]octanyl]-4-(dimethylamino)but-2-enamide]",6.00 to 8.00

# Same assay, conditions: Homo sapiens, TMD8, 120 h; 5-day treatment; read-out: TMD8 cells growth IC50
row,SMILES,pIC50
1,"CN(C)C/C=C/C(=O)N1CCC[C@@H](n2cc(-c3ccc(Oc4ccccc4)cc3F)c3c(N)n[nH]c(=O)c32)C1 [Example 77, 4-amino-1-[(3R)-1-[(E)-4-(dimethylamino)but-2-enoyl]-3-piperidyl]-3-(2-fluoro-4-phenoxy-phenyl)-6H-pyrrolo[2,3-d]pyridazin-7-one]",≥ 8.00
2,"N#CN1CCC[C@@H](n2cc(-c3ccc(Oc4ccccc4)c(F)c3)c3c(N)n[nH]c(=O)c32)C1 [Example 85, (R)-3-(4-amino-3-(3-fluoro-4-phenoxyphenyl)-7-oxo-6,7-dihydro-1H-pyrrolo[2,3-d]pyridazin-1-yl)piperidine-1-carbonitrile]",≥ 8.00
3,"COc1cc(-c2cn(C3CCCN(C(=O)/C=C/CN(C)C)C3)c3c(=O)[nH]nc(N)c23)ccc1Oc1cccc(Cl)c1 (centres unmarked) [Example 69, 4-amino-3-[4-(3-chlorophenoxy)-3-methoxy-phenyl]-1-[1-[(E)-4-(dimethylamino)but-2-enoyl]-3-piperidyl]-6H-pyrrolo[2,3-d]pyridazin-7-one]",≥ 8.00
4,"C=CC(=O)N1CCC(Cn2cc(-c3ccc(Oc4ccccc4)cc3)c3c(N)n[nH]c(=O)c32)CC1 [Example 10, 4-amino-3-(4-phenoxyphenyl)-1-[(1-prop-2-enoyl-4-piperidyl)methyl]-6H-pyrrolo[2,3-d]pyridazin-7-one]",6.00 to 8.00
5,"CC(C)N(C)C/C=C/C(=O)N1CCC[C@@H](n2cc(-c3ccc(Oc4ccccc4)cc3)c3c(N)n[nH]c(=O)c32)C1 [Example 16, 4-amino-1-[(3R)-1-[(E)-4-[isopropyl(methyl)amino]but-2-enoyl]-3-piperidyl]-3-(4-phenoxyphenyl)-6H-pyrrolo[2,3-d]pyridazin-7-one]",6.00 to 8.00
6,CN(C/C=C/C(=O)N1CCC[C@@H](n2cc(-c3ccc(Oc4ccccc4)cc3)c3c(N)n[nH]c(=O)c32)C1)C(=O)OC(C)(C)C [Example 17],6.00 to 8.00
7,"CC#CC(=O)N[C@H]1CC[C@@H](n2cc(-c3ccc(Oc4ccccc4F)cc3)c3c(N)n[nH]c(=O)c32)CC1 [Example 102, N-((1s,4s)-4-(4-amino-3-(4-(2-fluorophenoxy)phenyl)-7-oxo-6,7-dihydro-1H-pyrrolo[2,3-d]pyridazin-1-yl)cyclohexyl)but-2-ynamide]",≥ 8.00
8,"C=CC(=O)N1CCC[C@H](n2cc(-c3ccc(Oc4c(F)cccc4F)cc3)c3c(N)n[nH]c(=O)c32)C1 [Example 114, (S)-1-(1-acryloylpiperidin-3-yl)-4-amino-3-(4-(2,6-difluorophenoxy)phenyl)-1H-pyrrolo[2,3-d]pyridazin-7(6H)-one]",≥ 8.00
9,"COc1cc(-c2cn([C@@H]3CCCN(C(=O)/C=C/CN(C)C)C3)c3c(=O)[nH]nc(N)c23)ccc1Oc1ccc(Cl)c(Cl)c1 [Example 73, 4-amino-3-[4-(3,4-dichlorophenoxy)-3-methoxy-phenyl]-1-[(3R)-1-[(E)-4-(dimethylamino)but-2-enoyl]-3-piperidyl]-6H-pyrrolo[2,3-d]pyridazin-7-one]",6.00 to 8.00
10,"C=CC(=O)N1CCC[C@@H](n2cc(-c3ccc(Oc4c(F)cccc4Cl)cc3)c3c(N)n[nH]c(=O)c32)C1 [Example 78, (R)-1-(1-acryloylpiperidin-3-yl)-4-amino-3-(4-(2-chloro-6-fluorophenoxy)phenyl)-1H-pyrrolo[2,3-d]pyridazin-7(6H)-one]",≥ 8.00
11,"C/C=C/C(=O)N1CCC[C@@H](n2cc(-c3ccc(Oc4c(F)cccc4F)cc3)c3c(N)n[nH]c(=O)c32)C1 [Example 116, 4-amino-3-[4-(2,6-difluorophenoxy)phenyl]-1-[(3R)-1-[(E)-but-2-enoyl]-3-piperidyl]-6H-pyrrolo[2,3-d]pyridazin-7-one]",6.00 to 8.00
12,"CN(C)C/C=C/C(=O)N1CCC[C@@H](n2cc(-c3ccc(Oc4ccccc4)c(F)c3)c3c(N)n[nH]c(=O)c32)C1 [Example 75, 4-amino-1-[(3R)-1-[(E)-4-(dimethylamino)but-2-enoyl]-3-piperidyl]-3-(3-fluoro-4-phenoxy-phenyl)-6H-pyrrolo[2,3-d]pyridazin-7-one]",6.00 to 8.00
13,"Nc1n[nH]c(=O)c2c1c(-c1ccc(Oc3ccccc3)cc1)cn2[C@@H]1CCCN(C(=O)/C=C/CN2CCOCC2)C1 [Example 35, 4-amino-1-[(3R)-1-[(E)-4-morpholinobut-2-enoyl]-3-piperidyl]-3-(4-phenoxyphenyl)-6H-pyrrolo[2,3-d]pyridazin-7-one]",≥ 8.00
14,"COc1ccc(-c2cn(C3CCCN(C(=O)/C=C/CN(C)C)C3)c3c(=O)[nH]nc(N)c23)cc1Cl (centres unmarked) [Example 54, 4-amino-3-(3-chloro-4-methoxy-phenyl)-1-[1-[(E)-4-(dimethylamino)but-2-enoyl]-3-piperidyl]-6H-pyrrolo[2,3-d]pyridazin-7-one]",6.00 to 8.00
15,"Nc1n[nH]c(=O)c2c1c(-c1ccc(Oc3ccccc3)cc1)cn2[C@@H]1CCCN(C(=O)C2CC2)C1 [Example 23, 4-amino-1-[(3R)-1-(cyclopropanecarbonyl)-3-piperidyl]-3-(4-phenoxyphenyl)-6H-pyrrolo[2,3-d]pyridazin-7-one]",6.00 to 8.00
16,"C=CC(=O)N1CC[C@H](n2cc(-c3ccc(Oc4ccccc4)cc3)c3c(N)n[nH]c(=O)c32)C1 [Example 3, 4-amino-3-(4-phenoxyphenyl)-1-[(3S)-1-prop-2-enoylpyrrolidin-3-yl]-6H-pyrrolo[2,3-d]pyridazin-7-one]",6.00 to 8.00
17,"CN(C)C/C=C/C(=O)N1CCCC(n2cc(-c3ccc(Oc4ccc(F)cc4)cc3)c3c(N)n[nH]c(=O)c32)C1 (centres unmarked) [Example 61, 4-amino-1-[1-[(E)-4-(dimethylamino)but-2-enoyl]-3-piperidyl]-3-[4-(4-fluorophenoxy)phenyl]-6H-pyrrolo[2,3-d]pyridazin-7-one]",6.00 to 8.00
18,"C=CC(=O)N1CCC(Cn2cc(-c3ccc(Oc4ccccc4)cc3)c3c(N)n[nH]c(=O)c32)C1 (centres unmarked) [Example 8, 4-amino-3-(4-phenoxyphenyl)-1-[(1-prop-2-enoylpyrrolidin-3-yl)methyl]-6H-pyrrolo[2,3-d]pyridazin-7-one]",6.00 to 8.00
19,"CN(C/C=C/C(=O)N1CCC[C@@H](n2cc(-c3ccc(Oc4ccccc4)cc3)c3c(N)n[nH]c(=O)c32)C1)C1CCC1 [Example 31, 4-amino-1-[(3R)-1-[(E)-4-[cyclobutyl(methyl)amino]but-2-enoyl]-3-piperidyl]-3-(4-phenoxyphenyl)-6H-pyrrolo[2,3-d]pyridazin-7-one]",6.00 to 8.00
20,"CCN(CC)C/C=C/C(=O)N1CCC[C@@H](n2cc(-c3ccc(Oc4ccccc4)cc3)c3c(N)n[nH]c(=O)c32)C1 [Example 27, 4-amino-1-[(3R)-1-[(E)-4-(diethylamino)but-2-enoyl]-3-piperidyl]-3-(4-phenoxyphenyl)-6H-pyrrolo[2,3-d]pyridazin-7-one]",≥ 8.00
21,"C=CC(=O)N1CCC[C@@H](n2c(F)c(-c3ccc(Oc4ccccc4)cc3)c3c(N)n[nH]c(=O)c32)C1 [Example 81, (R)-1-(1-acryloylpiperidin-3-yl)-4-amino-2-fluoro-3-(4-phenoxyphenyl)-1H-pyrrolo[2,3-d]pyridazin-7(6H)-one]",≥ 8.00
22,"CN(C)C/C=C/C(=O)Nc1cccc(-n2cc(-c3ccc(Oc4ccccc4F)cc3)c3c(N)n[nH]c(=O)c32)c1 [Example 92, (E)-N-[3-[4-amino-3-[4-(2-fluorophenoxy)phenyl]-7-oxo-6H-pyrrolo[2,3-d]pyridazin-1-yl]phenyl]-4-(dimethylamino)but-2-enamide]",≥ 8.00
23,"C=CC(=O)N1CCC[C@@H](n2cc(-c3ccc(Oc4ccccc4)cc3F)c3c(N)n[nH]c(=O)c32)C1 [Example 76, (R)-1-(1-acryloylpiperidin-3-yl)-4-amino-3-(2-fluoro-4-phenoxyphenyl)-1H-pyrrolo[2,3-d]pyridazin-7(6H)-one]",≥ 8.00
24,"C=CC(=O)NC1C2CCC1CC(n1cc(-c3ccc(Oc4ccccc4)cc3)c3c(N)n[nH]c(=O)c31)C2 (centres unmarked) [Example 15, N-(3-(4-amino-7-oxo-3-(4-phenoxyphenyl)-6,7-dihydro-1H-pyrrolo[2,3-d]pyridazin-1-yl)bicyclo[3.2.1]octan-8-yl)acrylamide]",≥ 8.00
25,"C=CC(=O)N[C@H]1CC[C@@H](n2cc(-c3ccc(Oc4ccccc4F)cc3)c3c(N)n[nH]c(=O)c32)CC1 [Example 104, N-((1s,4s)-4-(4-amino-3-(4-(2-fluorophenoxy)phenyl)-7-oxo-6,7-dihydro-1H-pyrrolo[2,3-d]pyridazin-1-yl)cyclohexyl)acrylamide]",≥ 8.00
26,"N#CN1CCCC(n2cc(-c3ccc(Oc4ccccc4F)cc3)c3c(N)n[nH]c(=O)c32)C1 (centres unmarked) [Example 108, 3-(4-amino-3-(4-(2-fluorophenoxy)phenyl)-7-oxo-6,7-dihydro-1H-pyrrolo[2,3-d]pyridazin-1-yl)piperidine-1-carbonitrile]",≥ 8.00
